In patent publication US20160333019A1, “SYNTHESIS AND FORMULATIONS OF PORPHYRIN COMPOUNDS” (Aeolus Sciences, Inc., priority 2013, published 2016):

Assays:
Type in all cases: physicochemical
[1] = Humidity stability of Form I, dynamic vapor sorption and equilibrium water uptake; settings: equilibrium
Procedure: Dynamic Vapor Sorption (DVS). Samples were analyzed using an […]™ DVS-2 gravimetric water sorption analyzer. The relative humidity was adjusted between 2-95% and the weight of sample was continuously monitored and recorded.
Humidity Stability of Form I. Form I was exposed to a typical relative humidity range that most labs will experience e.g. 15-75% at 25° C. Initially the chamber relative humidity was adjusted at 50%. Then the RH was cycled between 15 to 75% and weight was monitored. FIG. 18 illustrates the changes in weight as a function of relative humidity. If the solid is equilibrated at 50% relative humidity the variation in weight would about ±2 wt % between 15-75% RH. Furthermore, an equilibrium study was performed at various relative humidity environments for extended time. Table 5.6 show the equilibrium % water uptake at various humidity levels.

[2] = Solid form stability: vapor diffusion, drying, grinding, competitive slurry, by XRPD
Procedure: Vapor Diffusion into Solid. Form I was used along with 21 solvent system to evaluate the effect of vapor diffusion on polymorphic behavior. About 2 mL solvent was added to a 20 mL scintillation vial. Furthermore, about 30 mg of solid was added to an open 2 mL HPLC vial and the whole vial was placed inside the bigger vial which contained the solvent. […] Both methanol and ethanol ended up with a mixture of Form I and Form VII. Form I kept its integrity at relative humidity of up to 85% which was generated using saturated potassium chloride.
Drying and Thermal Treatment Studies. A sample was produced using 3 eq. of Mn(III) acetate. The slurry was filtered at ambient without any precautions. The relative humidity of the lab was at 54% at the time of filtration. The wet cake was washed with acetonitrile followed by XRPD analysis which conformed to Form I. The wet cake was dried on a XRPD plate with dome in the over at 40° C., under vacuum for overnight. Then, the sample holder was capped while in the oven followed by XRPD analysis. The resulting solid was a Form III. Then, the cap of the domed holder was opened and allowed the dry solid to be exposed to ambient at RH of 54%.
Wet and Dry Grinding Studies. Form I was ground using mortar and pestle under dry and wet conditions. The solvents in wet grinding were acetonitrile, acetonitrile:water (98:2) and ethyl acetate. […] It should be noted that the grinding was performed under ambient conditions where relative humidity was around 50-60%.
Competitive Slurry Experiments. Mixture of six crystal forms (I, II, III, V, VI and VII) were slurried in three different solvents (acetonitrile acetonitrile:water (98:2) and ethyl acetate), at 25±2° C. for 5 days followed by filtration under nitrogen inert condition. About 20 mg of each polymorph added to the vials. The total weight was […] in each vial and 0.75 mL solvent was added. After filtration, the cake was washed with the same solvent as the one used in the slurry. The cake was placed on a sample holder and sealed using the X-ray transparent dome and analyzed using XRPD. The cap was then removed and solid was dried at 45° C. and under vacuum for half a day. The dry sample was then sealed under nitrogen inert environment and analyzed by XRPD. The next step was to expose the dry sample to about 50% relative humidity for 30 minutes followed by XRPD analysis. In the case of acetonitrile, the wet cake was a new pattern designated as Form IV. In acetonitrile:water (98:2), the resulting solid was low crystalline Form I. It seemed that 2 vol % water was not enough to result in a crystalline hydrate. In the case of ethyl acetate, the solid was also low crystalline Form I plus a few extra peaks. The water in starting Form I could have been enough to result in a low crystalline Form I with some extra peaks of the starting forms in hydrophobic ethyl acetate. This was not observed in neat acetonitrile due to affinity of this solvent for water. […] Theoretically, the same water quantity in ethyl acetate results in higher water activity than in acetonitrile.
Form II is the wet cake out of reaction mixture unexposed to moisture. Section 3.3.2.3 (reactive crystallization) describes the procedure of making Form II. FIG. 15 illustrates the XRPD of Form II. For XRPD analysis, a silicon plate with dome was used to prevent exposure to ambient. Form III is the result of drying of any of the solid forms. […] Due to instability, some peaks might be shifted if the same sample is repeated multiple times. FIG. 16 illustrates the XRPD of Form III. For XRPD analysis, a silicon plate with dome was used to prevent exposure to ambient. Form IV is the wet cake from slurrying all the solid forms in acetonitrile for at least 5 days and at room temperature. This form is unstable and upon exposure to moisture, it converts to Form I. FIG. 17 illustrates the XRPD of Form IV. For XRPD analysis, a silicon plate with dome was used to prevent exposure to ambient. […]

[3] = Air oxidation of the Mn(II) form
Procedure: Without being bound to any particular theory, the chemistry occurring when the pH of the 75 mg/mL solution rises from 4 to 9 over the 16-24 hour period may result from the presence of different oxidation states of Mn(II) and (III).
One proton is consumed per one molecule of Mn (II) porphyrin complex in the oxidation process. In the absence of acid (for example in WFI water) the oxidation process is expected to be slower and generates hydroxyl-ions: […]

CCn1cc[n+](CC)c1-c1c2nc(c(-c3n(CC)cc[n+]3CC)c3ccc([n-]3)c(-c3n(CC)cc[n+]3CC)c3nc(c(-c4n(CC)cc[n+]4CC)c4ccc1[n-]4)C=C3)C=C2.O.[Cl-].[Cl-].[Cl-].[Cl-].[Cl-].[Mn+3] [Form I, [5,10,15,20-tetrakis(1,3-diethylimidazolium-2-yl)porphyrinato]manganese(III) chloride hydrate complex]
% water uptake ([1]; relative humidity 20 %): 13.50%
% water uptake ([1]; relative humidity 40 %): 15.01%
% water uptake ([1]; relative humidity 75 %): 16.83%
% water uptake ([1]; relative humidity 80 %): 19.06%
stability of crystal form ([2]; ambient conditions and relative humidity as low as 15%): stable
relative stability among crystal forms ([2]; competitive slurry of forms I, II, III, V, VI and VII, exposure to moisture): most stable crystal form
stability under grinding conditions ([2]; dry and wet grinding, mortar and pestle, ambient, relative humidity 50-60%): pretty stable
relative humidity up to which the form kept its integrity ([2]; vapor diffusion, 6 days exposure, saturated potassium chloride): up to 85%

CCn1cc[n+](CC)c1-c1c2nc(c(-c3n(CC)cc[n+]3CC)c3ccc([n-]3)c(-c3n(CC)cc[n+]3CC)c3nc(c(-c4n(CC)cc[n+]4CC)c4ccc1[n-]4)C=C3)C=C2.O.[Cl-].[Cl-].[Cl-].[Cl-].[Cl-].[Mn+3] [Form III, [5,10,15,20-tetrakis(1,3-diethylimidazolium-2-yl)porphyrinato]manganese(III) chloride hydrate complex]
% water uptake ([1]; relative humidity 2 %): 0.00%
stability of crystal form upon exposure to moisture [2]: unstable and rapidly converts to Form I
time to full conversion to Form I ([2]; dry solid exposed to ambient at RH of 54%): less than half an hour

CCn1cc[n+](CC)c1-c1c2nc(c(-c3n(CC)cc[n+]3CC)c3ccc([n-]3)c(-c3n(CC)cc[n+]3CC)c3nc(c(-c4n(CC)cc[n+]4CC)c4ccc1[n-]4)C=C3)C=C2.[Mn+2] [Mn(II) form]
half-life of oxidation by air ([3]; aqueous solution containing 0.1% TFA): 5 to 7 min
stability in air ([3]; solid state): relatively stable

[5,10,15,20-tetrakis(1,3-diethylimidazolium-2-yl)porphyrinato]manganese(III) chloride hydrate complex [Form IV]
stability of crystal form upon exposure to moisture [2]: unstable
